Our source for the IC50 values is US11524968B2, “Heterocyclic compound as a protein kinase inhibitor” (HK inno.N Corporation, priority 2017, dated 2022).

A value given as a limit tells only on which side of the number the result lay.

Sequence of JAK1 (P23458 whole entry): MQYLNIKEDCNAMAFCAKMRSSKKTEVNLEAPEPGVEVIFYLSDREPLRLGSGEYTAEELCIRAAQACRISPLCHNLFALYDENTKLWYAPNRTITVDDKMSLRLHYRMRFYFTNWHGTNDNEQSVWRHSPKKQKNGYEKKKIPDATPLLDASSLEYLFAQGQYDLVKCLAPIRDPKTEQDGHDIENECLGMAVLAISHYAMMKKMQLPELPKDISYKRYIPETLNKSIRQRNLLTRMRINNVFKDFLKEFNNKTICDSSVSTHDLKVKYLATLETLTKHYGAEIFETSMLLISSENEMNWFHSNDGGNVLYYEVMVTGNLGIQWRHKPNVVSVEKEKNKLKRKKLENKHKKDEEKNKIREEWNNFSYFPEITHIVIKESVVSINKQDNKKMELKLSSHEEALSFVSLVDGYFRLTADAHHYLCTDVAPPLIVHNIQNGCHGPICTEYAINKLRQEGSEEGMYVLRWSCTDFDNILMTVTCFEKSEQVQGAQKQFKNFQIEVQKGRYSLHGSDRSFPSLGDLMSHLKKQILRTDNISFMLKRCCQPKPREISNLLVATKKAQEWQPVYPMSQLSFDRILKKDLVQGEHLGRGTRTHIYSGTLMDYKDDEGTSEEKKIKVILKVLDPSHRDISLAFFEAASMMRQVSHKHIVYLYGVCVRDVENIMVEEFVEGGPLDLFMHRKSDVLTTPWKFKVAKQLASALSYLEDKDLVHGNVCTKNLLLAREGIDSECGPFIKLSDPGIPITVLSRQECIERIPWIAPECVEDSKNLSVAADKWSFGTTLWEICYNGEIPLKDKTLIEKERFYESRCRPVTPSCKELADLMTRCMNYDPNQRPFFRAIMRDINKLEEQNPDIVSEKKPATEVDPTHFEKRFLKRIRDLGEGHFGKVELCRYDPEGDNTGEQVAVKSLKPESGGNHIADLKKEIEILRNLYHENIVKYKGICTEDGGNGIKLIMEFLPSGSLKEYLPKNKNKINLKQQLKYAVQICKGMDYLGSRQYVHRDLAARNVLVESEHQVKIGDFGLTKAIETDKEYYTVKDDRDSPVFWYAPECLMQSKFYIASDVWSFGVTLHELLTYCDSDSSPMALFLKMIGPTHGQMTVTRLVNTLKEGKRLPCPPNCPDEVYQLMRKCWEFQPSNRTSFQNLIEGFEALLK

In the assay the target is JAK1 (Homo sapiens (Human), UniProt P23458). The assay is described as follows: Analysis of JAK1 activity inhibition ability (ADP-Glo Kinase Assay). It counts as biochemical. To be noted: JAK1 enzyme, ADP-Glo luminescence, ATP 250 uM, IRS-itide substrate, 30° C. 40 minutes; read-out: IC50. An outline of the steps:
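ADP-Glo luminescence read-out of ADP production, with IC50 taken as the concentration halving JAK1 activity relative to control. Enzyme was incubated 40 min at 30 °C with compound, IRS-itide (40 ng/mL) and ATP (250 uM), concentrations as prepared in pH 7.5 Tris-HCl/MgCl2/BSA/DTT buffer.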
A word on the IC50: it is the concentration that gives 50% inhibition. Take `N#CCC(=O)N1CC=C(c2cc(NC(=O)c3ccco3)nc3[nH]ccc23)CC1` [Example 301, N-(4-(1-(2-cyanoacetyl)-1,2,3,6-tetrahydropyridin-4-yl)-1H-pyrrolo[2,3-b]pyridin-6-yl)furan-2-carboxamide]: the IC50 was > 200 nM. Then `CC1CN(C(=O)c2ccnc3[nH]ccc23)CC=C1c1cc(NC(=O)C2CC2)nc2[nH]ccc12` (stereo not shown) [Example 328, N-(4-(3-methyl-1-(1H-pyrrolo[2,3-b]pyridine-4-carbonyl)-1,2,3,6-tetrahydropyridin-4-yl)-1H-pyrrolo[2,3-b]pyridin-6-yl)cyclopropanecarboxamide], with 20 to 200 nM; and `N#CCCCS(=O)(=O)Nc1ccc(-c2nc(NC(=O)C3CC3)nc3[nH]ccc23)cc1F` [Example 204, N-(4-(4-((3-cyanopropyl)sulfonamido)-3-fluorophenyl)-7H-pyrrolo[2,3-d]pyrimidin-2-yl)cyclopropanecarboxamide], with 20 to 200 nM. Then `CCCCNC(=S)Nc1ccc(-c2cc(NC(=O)C3CC3)nc3[nH]ccc23)cc1` [Example 463, N-(4-(4-(3-butylthioureido)phenyl)-1H-pyrrolo[2,3-b]pyridin-6-yl)cyclopropanecarboxamide], with > 200 nM; and `O=C(Nc1cc(-c2ccc(CNC(=O)N3CCS(=O)(=O)CC3)cc2)c2cc[nH]c2n1)C1CC1` [Example 580, N-(4-(6-(cyclopropanecarboxamido)-1H-pyrrolo[2,3-b]pyridin-4-yl)benzyl)thiomorpholine-4-carboxamide 1,1-dioxide], with 20 to 200 nM; and `O=C(Nc1cc(-c2ccc(NC3CCN(C(=O)NCC(F)(F)F)CC3)c(F)c2)c2cc[nH]c2n1)C1CC1` [Example 505, 4-((4-(6-(cyclopropanecarboxamido)-1H-pyrrolo[2,3-b]pyridin-4-yl)-2-fluorophenyl)amino)-N-(2,2,2-trifluoroethyl)piperidine-1-carboxamide], with 20 to 200 nM.

In the case of `Cc1cc(C(=O)N(C)CC#N)ccc1-c1cc(NC(=O)C2CC2)nc2[nH]ccc12` [Example 527, N-(cyanomethyl)-4-(6-(cyclopropanecarboxamido)-1H-pyrrolo[2,3-b]pyridin-4-yl)-N,3-dimethylbenzamide], the IC50 was > 200 nM.

On to `CCCS(=O)(=O)Nc1ccc(-c2cc(NC(=O)C3CC3)nc3[nH]ccc23)c(C)c1F` [Example 100, N-(4-(3-fluoro-2-methyl-4-(propylsulfonamido)phenyl)-1H-pyrrolo[2,3-b]pyridin-6-yl)cyclopropanecarboxamide], for which the IC50 was in the range of 20 to 200 nM. Turning to `CC(C)C1CC(c2cc(NC(=O)C3CC3)nc3[nH]ccc23)=CCN1C(=O)CC#N` (stereo not shown) [Example 410, N-(4-(1-(2-cyanoacetyl)-2-isopropyl-1,2,3,6-tetrahydropyridin-4-yl)-1H-pyrrolo[2,3-b]pyridin-6-yl)cyclopropanecarboxamide], the IC50 was < 20 nM. For the compound `O=C(Nc1nc(-c2ccc(NS(=O)(=O)c3ccc(F)cc3)cc2)c2cc[nH]c2n1)C1CC1` [Example 188, N-(4-(4-((4-fluorophenyl)sulfonamido)phenyl)-7H-pyrrolo[2,3-d]pyrimidin-2-yl)cyclopropanecarboxamide], the IC50 is < 20 nM. On to `C=CCC(=O)N1CC=C(c2cc(NC(=O)C3CC3)nc3[nH]ccc23)CC1` [Example 270, N-(4-(1-(but-3-enoyl)-1,2,3,6-tetrahydropyridin-4-yl)-1H-pyrrolo[2,3-b]pyridin-6-yl)cyclopropanecarboxamide], for which the IC50 was > 200 nM.

Take `CC(=O)c1cccc(C(=O)N2CC=C(c3cc(NC(=O)C4CC4)nc4[nH]ccc34)C(C)C2)c1` (stereo not shown) [Example 332, N-(4-(1-(3-acetylbenzoyl)-3-methyl-1,2,3,6-tetrahydropyridin-4-yl)-1H-pyrrolo[2,3-b]pyridin-6-yl)cyclopropanecarboxamide]: the IC50 is > 200 nM. `CCS(=O)(=O)N1CCN(C(=O)Cc2ccc(-c3cc(NC(=O)C4CC4)nc4[nH]ccc34)cc2)CC1` [Example 563, N-(4-(4-(2-(4-(ethylsulfonyl)piperazin-1-yl)-2-oxoethyl)phenyl)-1H-pyrrolo[2,3-b]pyridin-6-yl)cyclopropanecarboxamide]: the 50% inhibitory concentration (IC50) fell in the range of 20 to 200 nM. Then `O=C(Nc1cc(-c2cc(F)c(CN3CCOCC3)c(F)c2)c2cc[nH]c2n1)C1CC1` [Example 590, N-(4-(3,5-difluoro-4-(morpholinomethyl)phenyl)-1H-pyrrolo[2,3-b]pyridin-6-yl)cyclopropanecarboxamide], with < 20 nM. As to `CCS(=O)(=O)Nc1ccc(-c2nc(NC(=O)C3CC3)nc3[nH]ccc23)cc1F` [Example 202, N-(4-(4-(ethylsulfonamido)-3-fluorophenyl)-7H-pyrrolo[2,3-d]pyrimidin-2-yl)cyclopropanecarboxamide], the IC50 lay within 20 to 200 nM.

`O=C(Nc1cc(-c2ccc(NC3CCN(C(=O)Nc4ccc(F)cc4F)CC3)cc2)c2cc[nH]c2n1)C1CC1` [Example 511, 4-((4-(6-(cyclopropanecarboxamido)-1H-pyrrolo[2,3-b]pyridin-4-yl)phenyl)amino)-N-(2,4-difluorophenyl)piperidine-1-carboxamide]: the IC50 lay in the range of 20 to 200 nM. Then `O=C(Nc1cc(-c2ccc(CC(=O)N3CCCCC3)cc2)c2cc[nH]c2n1)C1CC1` [Example 557, N-(4-(4-(2-oxo-2-(piperidin-1-yl)ethyl)phenyl)-1H-pyrrolo[2,3-b]pyridin-6-yl)cyclopropanecarboxamide], with 20 to 200 nM; and `NC(=O)c1ccc(S(=O)(=O)Nc2ccc(-c3cc(NC(=O)C4CC4)nc4[nH]ccc34)cc2)cc1` [Example 17, 4-(N-(4-(6-(cyclopropanecarboxamido)-1H-pyrrolo[2,3-b]pyridin-4-yl)phenyl)sulfamoyl)benzamide], with 20 to 200 nM. `O=C(Nc1cc(-c2ccc(CC(=O)N3CCC(F)(F)CC3)cc2)c2cc[nH]c2n1)C1CC1` [Example 561, N-(4-(4-(2-(4,4-difluoropiperidin-1-yl)-2-oxoethyl)phenyl)-1H-pyrrolo[2,3-b]pyridin-6-yl)cyclopropanecarboxamide]: the IC50 is 20 to 200 nM. `CCS(=O)(=O)Nc1ccc(-c2nc(Nc3ccccc3)nc3[nH]ccc23)cc1F` [Example 719, N-(2-fluoro-4-(2-(phenylamino)-7H-pyrrolo[2,3-d]pyrimidin-4-yl)phenyl)ethanesulfonamide]: the IC50 was in the range of 20 to 200 nM. In the case of `O=C(Nc1cc(-c2ccc(NS(=O)(=O)C3CCC3)cc2)c2cc[nH]c2n1)C1CC1` [Example 58, N-(4-(4-(cyclobutanesulfonamido)phenyl)-1H-pyrrolo[2,3-b]pyridin-6-yl)cyclopropanecarboxamide], the IC50 was < 20 nM. The figure for `O=C(Nc1cc(C2=CC3CCCC(C2)N3C(=O)c2ccnc(F)c2)c2cc[nH]c2n1)C1CC1` (stereo not shown) [Example 366, N-(4-(9-(2-fluoroisonicotinoyl)-9-azabicyclo[3.3.1]non-2-en-3-yl)-1H-pyrrolo[2,3-b]pyridin-6-yl)cyclopropanecarboxamide] is < 20 nM; for `CC1CN(C(=O)c2ccncc2)CC=C1c1cc(NC(=O)C2CC2)nc2[nH]ccc12` (stereo not shown) [Example 336, N-(4-(1-isonicotinoyl-3-methyl-1,2,3,6-tetrahydropyridin-4-yl)-1H-pyrrolo[2,3-b]pyridin-6-yl)cyclopropanecarboxamide] it is 20 to 200 nM; for `CC(C)(C#N)CCS(=O)(=O)Nc1ccc(-c2cc(NC(=O)C3CC3)nc3[nH]ccc23)cc1F` [Example 87, N-(4-(4-((3-cyano-3-methylbutyl)sulfonamido)-3-fluorophenyl)-1H-pyrrolo[2,3-b]pyridin-6-yl)cyclopropanecarboxamide] it is 20 to 200 nM. Regarding `CCc1cc(NS(=O)(=O)CCCC#N)ccc1-c1cc(NC(=O)C2CC2)nc2[nH]ccc12` [Example 111, N-(4-(4-((3-cyanopropyl)sulfonamido)-2-ethylphenyl)-1H-pyrrolo[2,3-b]pyridin-6-yl)cyclopropanecarboxamide], the IC50 is < 20 nM.

Take `CC1CN(C(=O)c2cc3ccccc3o2)CC=C1c1cc(NC(=O)C2CC2)nc2[nH]ccc12` (stereo not shown) [Example 352, N-(4-(1-(benzofuran-2-carbonyl)-3-methyl-1,2,3,6-tetrahydropyridin-4-yl)-1H-pyrrolo[2,3-b]pyridin-6-yl)cyclopropanecarboxamide]: the IC50 was 20 to 200 nM.

Consider `N#CCC(=O)N1C2CCC1CN(c1nc(NC(=O)C3CC3)nc3[nH]ccc13)C2` [Example 688, (N-(4-(8-(2-cyanoacetyl)-3,8-diazabicyclo[3.2.1]octan-3-yl)-7H-pyrrolo[2,3-d]pyrimidin-2-yl)cyclopropanecarboxamide)], for which the IC50 fell in the range of 20 to 200 nM. Take `N#CCC1(CS(=O)(=O)N2CC=C(c3cc(NC(=O)C4CC4)nc4[nH]ccc34)CC2)CC1` [Example 171, N-(4-(1-(((1-(cyanomethyl)cyclopropyl)methyl)sulfonyl)-1,2,3,6-tetrahydropyridin-4-yl)-1H-pyrrolo[2,3-b]pyridin-6-yl)cyclopropanecarboxamide]: the IC50 fell in the range of 20 to 200 nM. Regarding `O=C(Nc1cc(-c2ccc(CC(=O)N3CCC3)cc2)c2cc[nH]c2n1)C1CC1` [Example 546, N-(4-(4-(2-(azetidin-1-yl)-2-oxoethyl)phenyl)-1H-pyrrolo[2,3-b]pyridin-6-yl)cyclopropanecarboxamide], the IC50 is 20 to 200 nM. For `Cc1ccsc1C(=O)N1CC=C(c2cc(NC(=O)C3CC3)nc3[nH]ccc23)C(C)C1` (stereo not shown) [Example 342, N-(4-(3-methyl-1-(3-methylthiophene-2-carbonyl)-1,2,3,6-tetrahydropyridin-4-yl)-1H-pyrrolo[2,3-b]pyridin-6-yl)cyclopropanecarboxamide], the IC50 was in the range of 20 to 200 nM. Then `C=CCS(=O)(=O)N[C@H]1CCN(c2nc(NC(=O)C3CC3)nc3[nH]ccc23)C1` [Example 671, (S)—N-(4-(3-(allylsulfonamido)pyrrolidin-1-yl)-7H-pyrrolo[2,3-d]pyrimidin-2-yl)cyclopropanecarboxamide], with > 200 nM.
